# From US20250026741A1, “INHIBITORS OF THE ONCOGENIC SHP2 PHOSPHATASE AND USES THEREOF” (Sanford Burnham Prebys Medical Discovery Institute, priority 2021, published 2025)
# Experiments:
# SHP2cat [1] = biological target: T1, SHP2cat (Homo sapiens (Human), UniProt Q06124); test: Jump dilution inhibition assay; format: biochemical; settings: 10× preincubation 10 min, 10× jump-dilution
# Protocol: Finally, we performed a jump-dilution experiment to test for irreversible inhibition of SHP2. #01 was preincubated for 10 min with SHP2cat at 10× inhibitor and protein concentrations, compared to a regular dose-response experiment, followed by a 10×jump-dilution, incubation for an additional 10 min, and addition of the DiFMUP substrate.
# #01 was tested for reversibility of inhibition in a jump-dilution experiment using SHP2cat. A regular dose-response experiment (no jump-dilution) was performed in parallel. Working solutions of #01 in DMSO included 10, 3, 1, 0.3, 0.1, 0.03, 0.01, 0 mM for the jump-dilution experiment, and 1, 0.3, 0.1, 0.03, 0.01, 0.003, 0.001, 0 mM for the regular dose-response experiment. […] The enzyme reaction was started by the addition of 5 μL of DiFMUP working solution (100 μM in 50 mM Bis-Tris pH 6.0, 50 mMNaCl, 0.5 mM EDTA, and 0.01% Tween® 20), and fluorescence intensity was measured in kinetic mode (every minute for 10 min) using a Tecan Spark® Multimode Microplate Reader as described above. […] The initial rates were determined from the linear progression curves of the SHP2cat reaction. […] IC50 values were calculated from the corrected initial rates by nonlinear regression using the program GraphPad Prism (GraphPad Software, Inc., San Diego, CA) version 9.
# [2] = system: TNBC cells (BT-549 and MDA-MB-468); test: 11-day colony formation assay; format: cell-based; settings: 5, 10, or 20 μM, 11 days
# Protocol: Next, we performed an 11-day colony formation assay with TNBC cells treated with #02 or SHP099 at 5, 10, or 20 μM (FIG. 3D).
# MDA-MB-468 and […] triple-negative breast cancer cells were maintained in DMEM+10% FBS supplemented with 1× Penicillin-Streptomycin/L-Glutamine (Omega Scientific). 1.5K cells (in […]) were seeded per well of a standard 24-well tissue culture plate (Falcon) and allowed to adhere for 24 h, before the addition of drug(s) as described. After a further 96 h, media was replaced with fresh media containing the same test compounds and concentrations. After 11 days, media was removed and cells stained with 0.5% Crystal Violet (in 20% methanol) for 20 min with agitation @ 80 rpm. Stain was removed and plates with stained cells were washed by being submerged in excess deionized water and allowed to air dry overnight before imaging.
# SHP2cat [3] = biological target: T1, SHP2cat; test: Mass spectrometry test for inhibitor:protein adducts; settings: SHP2cat 5 μM, inhibitor 100 μM, 1, 5, 20, 60 min, trypsin proteolysis, MS
# Protocol: Additionally, we used mass spectrometry to test whether inhibitor: protein adducts are formed. Specifically, we incubated SHP2cat (5 μM) with #02 (100 μM) in assay buffer for various times (1, 5, 20, and 60 min) before trypsin proteolysis and subsequent mass spectrometry analysis.
# T1 sequence (Q06124 248-527): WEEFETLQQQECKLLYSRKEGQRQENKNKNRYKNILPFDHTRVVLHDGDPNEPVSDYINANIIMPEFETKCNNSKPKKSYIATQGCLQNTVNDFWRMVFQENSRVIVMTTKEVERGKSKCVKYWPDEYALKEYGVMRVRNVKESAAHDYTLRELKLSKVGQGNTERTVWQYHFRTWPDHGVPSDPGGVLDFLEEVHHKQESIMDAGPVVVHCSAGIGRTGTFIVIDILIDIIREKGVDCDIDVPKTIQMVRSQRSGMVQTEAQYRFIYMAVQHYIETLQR
SMILES,reversibility: jump-dilution vs regular dose-response IC50 curves (SHP2cat [1]),effect on colony formation [2],inhibitor:protein adduct formation (SHP2cat [3])
"Nc1ccc(NC(=O)c2cc(-c3ccc(/C=C4\Sc5ccccc5C4=O)o3)ccc2O)cc1 [#01, (Z)—N-(4-Aminophenyl)-2-hydroxy-5-(5-((3-oxobenzo[b]thiophen-2(3H)-ylidene)methyl)furan-2-yl)benzamide]",IC50 curves were practically identical,–,–
"O=C(Nc1ccccc1)c1cc(-c2ccc(/C=C3\Sc4ccccc4C3=O)o2)ccc1O [#02, (Z)-2-hydroxy-5-(5-((3-oxobenzo[b]thiophen-2(3H)-ylidene)methyl)furan-2-yl)-N-phenylbenzamide]",–,colonies were undetectable,no adduct formation with the inhibitor was found
